Each compound was assayed against T1, High mobility group protein B1 (Homo sapiens, UniProt P09429).
T1 sequence (P09429 whole entry): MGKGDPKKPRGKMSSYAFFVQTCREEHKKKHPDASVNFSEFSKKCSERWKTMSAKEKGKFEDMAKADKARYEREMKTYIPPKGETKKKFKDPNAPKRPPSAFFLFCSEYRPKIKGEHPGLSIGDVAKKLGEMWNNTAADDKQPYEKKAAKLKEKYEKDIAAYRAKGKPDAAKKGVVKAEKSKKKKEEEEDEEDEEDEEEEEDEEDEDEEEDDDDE
Description: Binding affinity to HMGB1 (unknown origin) assessed as dissociation constant by SPR analysis
`CO[C@H]1O[C@H](COS(=O)(=O)O)[C@@H](O[C@@H]2O[C@@H](C(=O)O)[C@@H](COC[C@H]3O[C@H](COS(=O)(=O)O)[C@@H](O[C@@H]4O[C@H](C(=O)O)[C@@H](COC[C@H]5O[C@H](COS(=O)(=O)O)[C@@H](O)[C@H](O)[C@H]5NS(=O)(=O)O)[C@H](O)[C@H]4O)[C@H](OS(=O)(=O)O)[C@H]3NS(=O)(=O)O)[C@H](O)[C@H]2OS(=O)(=O)O)[C@H](O)[C@H]1NS(=O)(=O)O` was tested, and the Kd was 4.5 µM.
`CC(=O)Oc1ccccc1C(=O)O` [ASPIRIN] showed a Kd of 1 µM.
`COc1ccc(-c2coc3cc(O)ccc3c2=O)cc1O` [CALYCOSIN] gave a Kd of 0.12 µM.
In the case of `O=C(O)c1cc(-c2ccc(F)cc2F)ccc1O` [DIFLUNISAL], the Kd is reported as 16 µM.
With `O=c1c(O[C@@H]2O[C@H](CO)[C@@H](O)[C@H](O)[C@H]2O)c(-c2ccc(O)c(O)c2)oc2cc(O)cc(O)c12` [ISOQUERCETIN] the Kd was 0.1 µM.
`C[C@@H]1O[C@@H](OC[C@H]2O[C@@H](Oc3c(-c4ccc(O)c(O)c4)oc4cc(O)cc(O)c4c3=O)[C@H](O)[C@@H](O)[C@@H]2O)[C@H](O)[C@H](O)[C@H]1O` [RUTIN] was tested, and the Kd was 0.26 µM.

Each compound was assayed on RAW264.7 (assay: Anti-inflammatory activity against mouse RAW264.7 cells assessed as inhibition of LPS-induced NO production).
In the case of `COc1ccc(/C=C/C(=O)C[C@H]2CC[C@]3(C)[C@H]4C(=O)C=C5[C@@H]6C[C@@](C)(C(=O)Oc7cn(C8O[C@@H](OC(C)=O)[C@@H](OC(C)=O)[C@@H](OC(C)=O)[C@@H]8OC(C)=O)nn7)CC[C@]6(C)CC[C@@]5(C)[C@]4(C)CC[C@H]3C2(C)C)cc1` (stereo not given in full), the IC50 is reported as 15.9 µM.
`COC(=O)C(Cc1c[nH]c2ccccc12)NC(=O)[C@@]1(C)CC[C@]2(C)CC[C@]3(C)C(=CC(=O)[C@@H]4[C@@]5(C)CCC(OC(=O)CCCCC6CCSS6)C(C)(C)[C@@H]5CC[C@]43C)[C@@H]2C1` (stereo not given in full) showed an IC50 of 13.4 µM.
With `CC1(C)[C@@H](OC(=O)CCC(=O)O)CC[C@]2(C)[C@H]3C(=O)C=C4[C@@H]5C[C@@](C)(C(=O)O)CC[C@]5(C)CC[C@@]4(C)[C@]3(C)CC[C@@H]12` [CARBENOXOLONE] the IC50 was 5 µM.
With `O=C(O[C@@H]1Cc2c(O)cc(O)cc2O[C@@H]1c1cc(O)c(O)c(O)c1)c1cc(O)c(O)c(O)c1` [EPIGALOCATECHIN GALLATE] the IC50 was less than 1 µM.

— ChEMBL document CHEMBL6078690, “Targeting HMGB1 and Its Interaction with Receptors: Challenges and Future Directions” (J Med Chem, 2024)
